Results taken from US9440969B2, “Compounds and methods for kinase modulation, and indications therefor” (PLEXXIKON INC., priority 2009, dated 2016).

Key:
[1] = system: COLO205 colon adenocarcinoma (B-Raf V600E mutation); test: COLO205 cell growth inhibition (ATPlite luminescence); format: cell-based; details: Homo sapiens, COLO 205, 72 h, COLO205 cells, incubated 3 days with compound
Outline: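 Cells seeded at 6×10^4 cells/mL in line-specific medium with 10% FBS, held overnight at 37°C, then given an 8-point 1:3 compound titration (top 10 μM final) for 3 days at 37°C, 5% CO2. ATP content read by ATPlite luminescence as a cell-number proxy; IC50 fitted from luminescence versus concentration.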

[2] = molecular target: CYP3A4(BFC) (Homo sapiens, UniProt P08684); test: CYP3A4 inhibition (substrate BFC); format: in vitro ADME; details: read-out: Cyp IC50 (μM) 3A4(BFC)
Description: (§1) CYP (Cytochrome P450) enzymes are the major drug metabolizing enzymes present in the liver. The inhibition of CYP enzyme activity (IC50) for each of CYP1A2, CYP2C19, CYP2C9, CYP2D6, CYP3A4(BFC) and CYP3A4(BQ) is determined for compounds, where inhibition of metabolism of a known substrate leads to a decrease in the fluorescence of the metabolized product. The fluorescence of the product is monitored as a function of compound concentration. Compounds are dissolved in dimethyl sulfoxide to a concentration of 100 mM. These are diluted […], into 82 μL of acetonitrile. An 11 μL aliquot of this solution is then added to 204 μL of cofactor mix (1.3% NADPH Regeneration system Solution A, 1.04% NADPH Regeneration system Solution B from BD Biosciences, 5% acetonitrile and 0.05% dimethyl sulfoxide). These are then serially diluted 1:1 (160 μL to 160 μL co-factor mix) for a total of 10 points. A 10 μL aliquot of this final mixture is dispensed into 384 well assay plates and incubated for 10 minutes at 37° C. Enzyme and substrate mix (10 μL; 0.5 pmol CYP1A2/5 μM CEC; 1.0 pmol CYP2C9/75 μM MFC; 0.5 pmol CYP2C19/25 μM CEC; 1.5 pmol CYP2D6/1.5 μM AMMC; 1.0 pmol CYP3A4/50 μM BFC; or 1.0 pmol CYP3A4/40 μM BQ) is added to these assay plates. Assay plates are incubated at 37° C. (CYP1A2-15 min; CYP2C9-45 min; CYP2C19, 2D6 and 3A4-30 min) and read in a Tecan Safire 2 plate reader (CYP1A2, 2C19 and 3A4 409 ex/460 em; CYP2C9 and 2D6 409 ex/530 em). The signal versus compound concentration is used to determine the IC50. The enzymes and substrates for this assay are obtained from BD Biosciences.

[3] = molecular target: CYP3A4(BQ) (Homo sapiens, UniProt P08684); test: CYP3A4 inhibition (substrate BQ); format: in vitro ADME; details: read-out: Cyp IC50 (μM) 3A4(BQ)
Description: as §1

Sequence of CYP3A4(BFC) (P08684 whole entry): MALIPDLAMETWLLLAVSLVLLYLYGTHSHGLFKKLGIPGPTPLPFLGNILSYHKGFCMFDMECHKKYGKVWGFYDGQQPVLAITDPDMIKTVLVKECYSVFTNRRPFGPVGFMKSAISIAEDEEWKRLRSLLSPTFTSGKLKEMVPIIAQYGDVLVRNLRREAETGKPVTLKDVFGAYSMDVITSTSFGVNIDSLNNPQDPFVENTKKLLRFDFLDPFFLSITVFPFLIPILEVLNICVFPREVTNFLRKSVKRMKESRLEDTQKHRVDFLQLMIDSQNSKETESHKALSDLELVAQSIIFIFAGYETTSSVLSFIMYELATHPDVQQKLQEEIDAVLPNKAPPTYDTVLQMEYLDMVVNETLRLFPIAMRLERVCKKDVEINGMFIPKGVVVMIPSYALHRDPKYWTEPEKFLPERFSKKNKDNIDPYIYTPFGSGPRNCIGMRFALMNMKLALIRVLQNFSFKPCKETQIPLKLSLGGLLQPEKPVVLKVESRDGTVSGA
Sequence of CYP3A4(BQ) (P08684 whole entry): as above

| IC50 [1] [µM] | IC50 [2] [µM] | IC50 [3] [µM] | SMILES |
| --- | --- | --- | --- |
| < 1 | > 10 | – | CC(=O)n1cc(C(=O)c2c(F)ccc(NS(=O)(=O)c3cc(F)ccc3F)c2F)c2cc(-c3ccc4c(cnn4C(C)=O)c3)cnc21 [P-0004, N-{3-[1-Acetyl-5-(1-acetyl-1H-indazol-5-yl)-1H-pyrrolo[2,3-b]pyridine-3-carbonyl]-2,4-difluoro-phenyl}-2,5-difluoro-benzenesulfonamide] |
| < 1 | > 10 | – | CC(=O)N(c1ccc(F)c(C(=O)c2cn(C(C)=O)c3ncc(-c4ccc5c(cnn5C(C)=O)c4)cc23)c1F)S(=O)(=O)c1cc(F)ccc1F [P-0006, N-Acetyl-N-{3-[1-acetyl-5-(1-acetyl-1H-indazol-5-yl)-1H-pyrrolo[2,3-b]pyridine-3-carbonyl]-2,4-difluoro-phenyl}-2,5-difluoro-benzenesulfonamide] |
| < 1 | > 10 | > 10 | CCCS(=O)(=O)Nc1ccc(F)c(C(=O)c2c[nH]c3ncc(-c4ccc5ncsc5c4)cc23)c1F [P-0020, Propane-1-sulfonic acid [3-(5-benzothiazol-6-yl-1H-pyrrolo[2,3-b]pyridine-3-carbonyl)-2,4-difluoro-phenyl]-amide] |
| < 1 | > 10 | > 10 | CCCS(=O)(=O)Nc1ccc(F)c(C(=O)c2c[nH]c3ncc(-c4ccc5cncnc5c4)cc23)c1F [P-0025, Propane-1-sulfonic acid [2,4-difluoro-3-(5-quinazolin-7-yl-1H-pyrrolo[2,3-b]pyridine-3-carbonyl)-phenyl]-amide] |

Further lines, the compound ahead of its results:

| SMILES | IC50 [1] [µM] | IC50 [2] [µM] | IC50 [3] [µM] |
| --- | --- | --- | --- |
| O=C(c1c(F)ccc(NS(=O)(=O)c2cc(F)ccc2F)c1F)c1c[nH]c2ncc(-c3ccc4[nH]ncc4c3)cc12 [P-0002, N-{2,4-Difluoro-3-[5-(1H-indazol-5-yl)-1H-pyrrolo[2,3-b]pyridine-3-carbonyl]-phenyl}-2,5-difluoro-benzenesulfonamide] | < 1 | – | – |
| CC(=O)n1ncc2cc(-c3cnc4[nH]cc(C(=O)c5c(F)ccc(NS(=O)(=O)c6cc(F)ccc6F)c5F)c4c3)ccc21 [P-0005, N-{3-[5-(1-Acetyl-1H-indazol-5-yl)-1H-pyrrolo[2,3-b]pyridine-3-carbonyl]-2,4-difluoro-phenyl}-2,5-difluoro-benzenesulfonamide] | < 1 | > 10 | – |
| CCCS(=O)(=O)Nc1ccc(F)c(C(=O)c2c[nH]c3ncc(-c4ccc5c(cnn5S(C)(=O)=O)c4)cc23)c1F [P-0016, propane-1-sulfonic acid {2,4-difluoro-3-[5-(1-methanesulfonyl-1H-indazol-5-yl)-1H-pyrrolo[2,3-b]pyridine-3-carbonyl]-phenyl}-amide] | < 1 | > 10 | – |
| CCCS(=O)(=O)Nc1ccc(F)c(C(=O)c2c[nH]c3ncc(-c4ccc5[nH]cc(C)c5c4)cc23)c1F [P-0023, Propane-1-sulfonic acid {2,4-difluoro-3-[5-(3-methyl-1H-indol-5-yl)-1H-pyrrolo[2,3-b]pyridine-3-carbonyl]-phenyl}-amide] | < 1 | > 10 | > 10 |
| CCCS(=O)(=O)Nc1ccc(F)c(C(=O)c2c[nH]c3ncc(-c4cnn(C5CCNCC5)c4)cc23)c1F [P-1002, Propane-1-sulfonic acid {2,4-difluoro-3-[5-(1-piperidin-4-yl-1H-pyrazol-4-yl)-1H-pyrrolo[2,3-b]pyridine-3-carbonyl]-phenyl}-amide] | < 1 | > 10 | > 10 |
| O=C(c1c(F)ccc(NS(=O)(=O)c2ccc(C(F)(F)F)cc2)c1F)c1c[nH]c2ncc(-c3cnn(C4CCNCC4)c3)cc12 [P-1004, N-{2,4-Difluoro-3-[5-(1-piperidin-4-yl-1H-pyrazol-4-yl)-1H-pyrrolo[2,3-b]pyridine-3-carbonyl]-phenyl}-4-trifluoromethyl-benzenesulfonamide] | > 1 | 5 to 10 | > 10 |
| Cc1ccc(-c2cnc3[nH]cc(C(=O)c4c(F)ccc(NS(=O)(=O)c5cc(F)ccc5F)c4F)c3c2)cn1 [P-1408, N-{2,4-Difluoro-3-[5-(6-methyl-pyridin-3-yl)-1H-pyrrolo[2,3-b]pyridine-3-carbonyl]-phenyl}-2,5-difluoro-benzenesulfonamide] | – | > 10 | > 10 |
| Cc1ncc(-c2cnc3[nH]cc(C(=O)c4c(F)ccc(NS(=O)(=O)c5cc(F)ccc5F)c4F)c3c2)cn1 [P-1503, N-{2,4-Difluoro-3-[5-(2-methyl-pyrimidin-5-yl)-1H-pyrrolo[2,3-b]pyridine-3-carbonyl]-phenyl}-2,5-difluoro-benzenesulfonamide] | – | > 10 | > 10 |
